14 molecules from patent publication US20260285853A1, “COMPOUNDS AND METHODS FOR MODULATING SPLICING” (REMIX THERAPEUTICS INC., priority 2023, published 2026) can be followed below.

Holding throughout (assay type): cell-based
Experiment [1] concerns MYB mRNA. Nature of the experiment: Splicing RT-qPCR assay, canonical (CJ) and alternative (AJ) junction mRNA, K562 cells. As to conditions: Homo sapiens, K562.3 cells, 24 hours; for AC50: read-out: MYB AJ (AC50, increase in AJ mRNA); for IC50: read-out: MYB CJ (IC50, decrease in CJ mRNA). The procedure, abridged: (§1)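 K562 cells in IMDM/10% FBS treated 24 h at 37 °C with an 11-point 3-fold dilution (top 10 uM, ≤0.25% DMSO). Lysates went to one-step RT-qPCR for CJ and AJ junctions, normalized to GAPDH or GUSB; ΔΔCt vs DMSO converted to RQ, then to percentage response using fixed ΔCt windows.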
A general note: In qPCR the cycle at which signal appears reflects the starting amount.

Experiment [2] has as its system HTT mRNA. Described as above. As to conditions: Homo sapiens, K562.3 cells, 24 hours; for AC50: read-out: HTT AJ (AC50, increase in AJ mRNA); for IC50: read-out: HTT CJ (IC50, decrease in CJ mRNA). The procedure, abridged: as §1
The test system of experiment [3] is MYB mRNA. Nature of the experiment: Splicing RT-qPCR assay (THP), Table 2A. The note with it: Table 2A (THP); for AC50: AJ mRNA increase, read-out: MYB AJ (increase in alternative junction mRNA, AC50); for IC50: CJ mRNA decrease, read-out: MYB CJ (decrease in canonical junction mRNA, IC50).
The subject of experiment [4] is HTT mRNA. Put plainly: Splicing RT-qPCR assay (THP), Table 2A. The note with it: Table 2A (THP); for AC50: AJ mRNA increase, read-out: HTT AJ (increase in alternative junction mRNA, AC50); for IC50: CJ mRNA decrease, read-out: HTT CJ (decrease in canonical junction mRNA, IC50).
For experiment [5], the system named is SH-SY5Y (human neuroblastoma) cells. Put plainly: Cell viability, Cell Titer Glo 2.0 assay. As to conditions: read-out: Viability SHSY5Y.3 GI50. The procedure, abridged: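 SH-SY5Y cells were exposed to serially diluted compounds in IMDM with 10% FBS and 0.1% DMSO for 72 hours at 37° C., 5% CO2. Viability was measured by CellTiter-Glo 2.0 luminescence, with medium-only wells as blank.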

What is called AC50 is the concentration at which the activity in the assay is half-maximal. Usually IC50 stands for the concentration that gives 50% inhibition. A word on the GI50: it is the concentration at which growth is held to half of that of the control. Turning to `CN[C@H]1C[C@@H](C)N(c2ccc(C(=O)Nc3cc(F)c4nc(C)cn4c3)c3nn(C)cc23)C1` (single isomer, unassigned) [Compound 128], the AC50 in experiment [1] lay in the range of 0.1 to 1 µM; in experiment [2], 1 to 10 µM; in experiment [3], 0.1 to 1 µM; in experiment [4], 1 to 10 µM. For the same molecule, the IC50 in experiment [1] lay within 0.1 to 1 µM; in experiment [2] it was 0.1 to 1 µM; in experiment [3], 0.1 to 1 µM; in experiment [4], 1 to 10 µM. Besides, the concentration for 50% growth inhibition (GI50) in experiment [5] lay in the range of 1 to 10 µM.
With `CN[C@H]1CCN(c2ccc(C(=O)Nc3cc(F)c4nc(C)cn4c3)c3nn(C)cc23)[C@H]1C` (single isomer, unassigned) [Compound 152], the AC50 in experiment [1] is 1 to 10 µM; in experiment [2] it was > 10 µM; in experiment [3], > 10 µM; in experiment [4], > 10 µM. Also, the IC50 in experiment [1] is 1 to 10 µM; in experiment [2], > 10 µM; in experiment [3], 1 to 10 µM; in experiment [4], > 10 µM. The GI50 in experiment [5] is > 10 µM.
For `CN[C@@H]1CCN(c2ccc(C(=O)Nc3cc(F)c4nc(C)cn4c3)c3nn(C)cc23)[C@@H]1C` (single isomer, unassigned) [Compound 153], the AC50 in experiment [1] is < 0.1 µM; in experiment [2], 1 to 10 µM; in experiment [3], < 0.1 µM; in experiment [4], 0.1 to 1 µM. Moreover, the IC50 in experiment [1] was < 0.1 µM; in experiment [2], 0.1 to 1 µM; in experiment [3] it was < 0.1 µM; in experiment [4], 0.1 to 1 µM. Besides, the concentration for 50% growth inhibition (GI50) in experiment [5] lay in the range of 0.1 to 1 µM.
As for `CN[C@H]1CCN(c2ccc(C(=O)Nc3cc(F)c4nc(C)cn4c3)c3nn(C)cc23)[C@@H]1C` (single isomer, unassigned) [Compound 154], the AC50 is 0.1 to 1 µM in experiment [1], > 10 µM in experiment [2], 0.1 to 1 µM in experiment [3] and > 10 µM in experiment [4]. Also, the IC50 was 0.1 to 1 µM in experiment [1], > 10 µM in experiment [2], 1 to 10 µM in experiment [3] and > 10 µM in experiment [4]. For the same molecule, the GI50 in experiment [5] lay in the range of 0.1 to 1 µM.
For `COCCN[C@@H]1CCN(c2ccc(C(=O)Nc3cc(F)c4nc(C)cn4c3)c3nn(C)cc23)C1` [Compound 113, N-(8-fluoro-2-methyl-imidazo[1,2-a]pyridin-6-yl)-4-[(3R)-3-(2-methoxyethylamino)pyrrolidin-1-yl]-2-methyl-indazole-7-carboxamide], the AC50 in experiment [1] is 0.1 to 1 µM; in experiment [2] it was > 10 µM; in experiment [3], 0.1 to 1 µM; in experiment [4] it was > 10 µM. Also, the IC50 in experiment [1] was 0.1 to 1 µM; in experiment [2], > 10 µM; in experiment [3], 0.1 to 1 µM; in experiment [4], > 10 µM. Moreover, the GI50 in experiment [5] lay within 1 to 10 µM.
`COCC1(N[C@H]2CCN(c3ccc(C(=O)Nc4cc(F)c5nc(C)cn5c4)c4nn(C)cc34)C2)CC1` [Compound 118, (S)—N-(8-fluoro-2-methylimidazo[1,2-a]pyridin-6-yl)-4-(3-((1-(methoxymethyl)cyclopropyl)amino)pyrrolidin-1-yl)-2-methyl-2H-indazole-7-carboxamide]: the AC50 in experiment [1] is 1 to 10 µM; in experiment [2], > 10 µM; in experiment [3] it was 1 to 10 µM; in experiment [4] it was > 10 µM. The IC50 is 1 to 10 µM in experiment [1], 1 to 10 µM in experiment [2], 0.1 to 1 µM in experiment [3] and > 10 µM in experiment [4]. For the same molecule, the GI50 in experiment [5] was > 10 µM.
With `COCC1(N[C@@H]2CCN(c3ccc(C(=O)Nc4cc(F)c5nc(C)cn5c4)c4nn(C)cc34)C2)CC1` [Compound 119, (R)—N-(8-fluoro-2-methylimidazo[1,2-a]pyridin-6-yl)-4-(3-((1-(methoxymethyl)cyclopropyl)amino)-pyrrolidin-1-yl)-2-methyl-2H-indazole-7-carboxamide], the AC50 in experiment [1] was 0.1 to 1 µM; in experiment [2], > 10 µM; in experiment [3], 0.1 to 1 µM; in experiment [4], > 10 µM. Moreover, the IC50 in experiment [1] is 0.1 to 1 µM; in experiment [2], 1 to 10 µM; in experiment [3], 0.1 to 1 µM; in experiment [4], > 10 µM. The GI50 in experiment [5] lay in the range of 1 to 10 µM.
Regarding `CN[C@@H]1C[C@@H](C)N(c2ccc(C(=O)Nc3cc(F)c4nc(C)cn4c3)c3nn(C)cc23)C1` [Compound 129, N-(8-fluoro-2-methyl-imidazo[1,2-a]pyridin-6-yl)-2-methyl-4-[(2R,4R)-2-methyl-4-(methylamino)pyrrol-idin-1-yl]indazole-7-carboxamide], the AC50 was 0.1 to 1 µM in experiment [1], 1 to 10 µM in experiment [2], 0.1 to 1 µM in experiment [3] and 1 to 10 µM in experiment [4]. Moreover, the IC50 is 0.1 to 1 µM in experiment [1], 1 to 10 µM in experiment [2], < 0.1 µM in experiment [3] and 1 to 10 µM in experiment [4]. Also, the GI50 in experiment [5] was in the range of 1 to 10 µM.
For the molecule `CCN[C@@H]1CCN(c2cc(O)c(C(=O)Nc3cc(F)c4nc(C)cn4c3)c3nn(C)cc23)C1` [Compound 144, 4-[3-(ethylamino)pyrrolidin-1-yl]-N-(8-fluoro-2-methyl-imidazo[1,2-a]pyridin-6-yl)-6-hydroxy-2-methyl-indazole-7-carboxamide], the AC50 in experiment [1] is < 0.1 µM; in experiment [2], > 10 µM; in experiment [3] it was < 0.1 µM; in experiment [4], > 10 µM. For the same molecule, the half-maximal inhibitory concentration (IC50) in experiment [1] was < 0.1 µM; in experiment [2] it was > 10 µM; in experiment [3], < 0.1 µM; in experiment [4], > 10 µM. The GI50 in experiment [5] was in the range of 0.1 to 1 µM.
`CN[C@H]1CCN(c2c(O)cc(C(=O)Nc3cc(F)c4nc(C)cn4c3)c3nn(C)cc23)C1` [Compound 149, N-(8-fluoro-2-methyl-imidazo[1,2-a]pyridin-6-yl)-5-hydroxy-2-methyl-4-[(3S)-3-(methylamino)pyrrolidin-1-yl]-indazole-7-carboxamide]: the concentration at half-maximal activity (AC50) in experiment [1] is 1 to 10 µM; in experiment [2], > 10 µM; in experiment [3], > 10 µM; in experiment [4] it was > 10 µM. Moreover, the IC50 in experiment [1] is 1 to 10 µM; in experiment [2] it was 1 to 10 µM; in experiment [3], 1 to 10 µM; in experiment [4], > 10 µM. In addition, in experiment [5], the GI50 was 1 to 10 µM.
For `CN[C@@H]1CCN(c2ccc(C(=O)Nc3cc(F)c4nc(C)cn4c3)c3nn(C)cc23)[C@H]1C` [Compound 155, N-(8-fluoro-2-methylimidazo-[1,2-a]pyridin-6-yl)-2-methyl-4-[(2S,3R)-2-methyl-3-(methylamino)-pyrrolidin-1-yl]indazole-7-carboxamide], the AC50 in experiment [1] was > 10 µM; in experiment [2], > 10 µM; in experiment [3] it was 1 to 10 µM; in experiment [4], > 10 µM. Also, the IC50 in experiment [1] was 1 to 10 µM; in experiment [2], > 10 µM; in experiment [3], > 10 µM; in experiment [4] it was > 10 µM. The GI50 in experiment [5] lay in the range of 0.1 to 1 µM.
In the case of `Cc1cn2cc(NC(=O)c3c(F)cc(N4CC[C@H](NCC56CC(CO5)C6)C4)c4cn(C)nc34)cc(F)c2n1` [Compound 157, 6-fluoro-N-(8-fluoro-2-methyl-imidazo[1,2-a]pyridin-6-yl)-2-methyl-4-[(3S)-3-(2-oxabicyclo[2.1.1]hexan-1-ylmethylamino)pyrrolidin-1-yl]indazole-7-carboxamide], the AC50 is < 0.1 µM in experiment [1], > 10 µM in experiment [2], < 0.1 µM in experiment [3] and > 10 µM in experiment [4]. Also, the IC50 in experiment [1] was 0.1 to 1 µM; in experiment [2], > 10 µM; in experiment [3] it was < 0.1 µM; in experiment [4], > 10 µM. The 50% growth inhibitory concentration (GI50) in experiment [5] was 1 to 10 µM.
With `CN[C@H]1CCN(c2ccc(C(=O)Nc3cc(F)c4nc(C)cn4c3)c3c2nnn3C)C1` [Compound 160, N-(8-fluoro-2-methyl-imidazo[1,2-a]pyridin-6-yl)-3-methyl-7-[(3S)-3-(methylamino)-pyrrolidin-1-yl]benzotriazole-4-carboxamide], the AC50 in experiment [1], in experiment [2], in experiment [3] and in experiment [4] was > 10 µM each time. Moreover, the IC50 in experiment [1], in experiment [2], in experiment [3] and in experiment [4] was > 10 µM each time. Besides, the GI50 in experiment [5] was > 10 µM.
As for `CN[C@H]1CCN(c2ccc(C(=O)Nc3cc(F)c4nc(C)cn4c3)c3nn(C)nc23)C1` [Compound 163, (S)-N-(8-fluoro-2-methylimidazo-[1,2-a]pyridin-6-yl)-2-methyl-7-(3-(methylamino)pyrrolidin-1-yl)-2H-benzo[d]-[1,2,3]triazole-4-carboxamide], the AC50 in experiment [1] lay within 0.1 to 1 µM; in experiment [2] it was 0.1 to 1 µM; in experiment [3], 0.1 to 1 µM; in experiment [4], 1 to 10 µM. For the same molecule, the IC50 in experiment [1] was in the range of 0.1 to 1 µM; in experiment [2], 0.1 to 1 µM; in experiment [3], 1 to 10 µM; in experiment [4], 0.1 to 1 µM. For the same molecule, the concentration for 50% growth inhibition (GI50) in experiment [5] lay in the range of 0.1 to 1 µM.
